Measurements published in article PMC8365602 (Journal of Medicinal Chemistry, 2021).

How the values were obtained:
[1] = biological target: T1, 5-LOX (Homo sapiens, UniProt P09917); assay: Cell-free 5-LOX activity (isolated human recombinant enzyme); details: read-out: 5-LOX enzyme residual activity at 1 μM
T1 sequence (P09917 1-674): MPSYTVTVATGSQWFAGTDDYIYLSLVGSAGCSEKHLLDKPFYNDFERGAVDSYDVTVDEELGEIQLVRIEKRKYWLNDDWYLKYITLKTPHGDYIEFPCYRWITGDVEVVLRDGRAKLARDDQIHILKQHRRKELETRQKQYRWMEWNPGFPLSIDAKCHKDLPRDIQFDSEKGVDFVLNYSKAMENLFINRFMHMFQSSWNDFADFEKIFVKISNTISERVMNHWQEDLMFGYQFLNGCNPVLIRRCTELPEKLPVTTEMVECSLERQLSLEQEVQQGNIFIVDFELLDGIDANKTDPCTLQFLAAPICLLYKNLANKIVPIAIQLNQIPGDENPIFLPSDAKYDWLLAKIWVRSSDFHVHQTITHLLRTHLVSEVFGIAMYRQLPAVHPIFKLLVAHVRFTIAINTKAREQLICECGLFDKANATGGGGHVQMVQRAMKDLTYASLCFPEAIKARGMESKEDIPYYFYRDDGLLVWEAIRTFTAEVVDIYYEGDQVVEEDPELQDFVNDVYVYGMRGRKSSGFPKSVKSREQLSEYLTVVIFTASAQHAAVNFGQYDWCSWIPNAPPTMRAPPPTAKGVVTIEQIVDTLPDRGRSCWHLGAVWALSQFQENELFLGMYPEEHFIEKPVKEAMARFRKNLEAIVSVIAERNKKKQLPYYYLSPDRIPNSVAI

[2] = biological target: T1, 5-LOX; assay: Tryptophan fluorescence spectroscopy of 5-LOX; assay type: binding; parameters: made in house; host or cells: E. coli Bl21 (DE3); details: 5-LOX titrated with compound, 0–10 μM
Protocol: Fluorescence spectroscopy measurements on human recombinant 5-LOX (Abcam, Cambridge, U.K.) were conducted in PBS pH 7.4 at 25 °C using an Edinburgh Instruments FLS920 Series fluorescence spectrophotometer (Livingston, U.K.). […] The concentration range of 5-LOX used through the experiments was 0.3–0.6 μM. 5-LOX was titrated with a stock solution of the test compounds in dimethylformamide to yield an experimental compound concentration in the range of 0–10 μM. The final dimethylformamide concentration was kept under 5%. After each addition, the sample was incubated for 10 min before measurement. The fluorescence emission intensity values were corrected for dilution and background noise. All conditions were measured independently and in duplicate.
The fluorescence spectral shifts were analyzed by monitoring the alterations in the spectral center of mass by estimating the intensity-averaged emission wavelength (⟨λ⟩), as calculated from the following equation, where Fi is the fluorescence emission intensity at wavenumber νi, and the summation was performed over the range of measured F values [drawing 1] 1

[3] = biological target: T1, 5-LOX; assay: 5-LOX product formation in activated PMNL; details: PMNL, read-out: 5-LOX PMNL residual activity at 3 μM;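 note: freshly isolated human PMNL in PBS pH 7.4 plus glucose, preincubated 10 min at 37 °C with compound, 5-LOX products (all-trans LTB4 isomers, 5-HETE) quantified by RP-HPLC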
[4] = Hepatic metabolism in human liver-on-chip; assay type: in vitro ADME; details: 1 μM, 48 h
Protocol: LCMs, 27a, and 27a metabolites were extracted from PMNL, medium of the liver-on-chip, murine plasma, peritoneal exudate, or homogenized murine tissue as described.[6] In brief, PBS pH 7.4, methanol, chloroform, and saline (final ratio: 14:34:35:17) were successively added together with 13d (9 pmol) as the internal standard. The organic layer was evaporated, and the extracted LCMs were dissolved in methanol.
LCMs, 27a, and 27a metabolites were separated at a flow rate of 0.8 mL/min and a column temperature of 45 °C, with acetonitrile/H2O (10:90) as mobile phase A and acetonitrile as mobile phase B, both acidified with 0.07% formic acid. The linear gradient from A/B = 50:50 to 0:100 within 4.5 min was followed by isocratic elution with A/B = 0:100 for 1 min. MS parameters were adjusted according to Pein et al.[6] and as detailed in Table S3. Signal intensities were normalized to the internal standard 13d, and concentrations were calculated using external calibration curves as specified in Table S3. […]
The medium between the two membranes was renewed, and the vehicle (DMSO), 12a, or 27a were added. […] 12a, 27a, and their metabolites were extracted from the combined fractions and analyzed by UPLC-MS/MS.[6]

[5] = test system: monocytes; assay: Monocyte membrane integrity (LDH release); assay type: cell-based, human; details: higher concentrations (>1 μM)
Protocol: To measure mitochondrial dehydrogenase activity, 3-(4,5-dimethylthiazol-2-yl)-2,5-diphenyltetrazolium bromide (MTT) (20 μL, 5 mg/mL, Sigma-Aldrich) was added to PBMC. After 4 h in the darkness, the formed formazan product was solubilized (10% SDS in 20 mM HCl) and the absorbance was read at 570 nm using a Multiskan Spectrum microplate reader (Thermo Fisher Scientific).[81]
LDH release was measured in monocytes using a CytoTox 96 nonradioactive cytotoxicity assay (Promega, Madison, WI) according to the manufacturer’s instruction using Triton X-100 (0.8%) as the maximum LDH release control.

remaining activity at 1 µM [1]: 0.8 ± 0.2%
remaining activity at 3 µM [3]: 2 ± 0.8%
LDH release from monocytes at higher concentrations [5]: not evident
Compound: Cc1c(C)c2c(c(C)c1O)CC[C@@](C)(CCCC(C)CCCC(C)CCCC(C)C(=O)O)O2 (stereo partly drawn) [Compound 12a, α-T-13′-COOH]
Shift of spectral center of mass of intrinsic Trp fluorescence of 5-LOX [2]: substantially shifted to a shorter wavelength
Hepatic metabolism [4]: truncated to metabolites with varying side-chain lengths
